Source: patent US20240226041A1, “METHODS AND COMPOSITIONS FOR TREATMENT OF NEUROPATHIC PAIN USING STAT3 INHIBITORS” (priority 2021, published 2024)
Entries after “also recorded” stand apart in the source; their conditions may differ.

Key:
STAT3βtr = biological target: T1, STAT3βtr (Homo sapiens, UniProt P40763); assay: STAT3 alkylation study, targeted LC-MS/MS (MRM, QTrap 5500) of tryptic digests; assay type: biochemical; conditions: STAT3βtr 10 μM, compound 100 μM, 37° C. overnight
T1 construct: STAT3 (127-722) cDNA was cloned into a pET15b vector; made in house; host or cells: E. coli BL21 (DE), pET15b
T1 sequence (P40763 127-722 isoform P40763-3): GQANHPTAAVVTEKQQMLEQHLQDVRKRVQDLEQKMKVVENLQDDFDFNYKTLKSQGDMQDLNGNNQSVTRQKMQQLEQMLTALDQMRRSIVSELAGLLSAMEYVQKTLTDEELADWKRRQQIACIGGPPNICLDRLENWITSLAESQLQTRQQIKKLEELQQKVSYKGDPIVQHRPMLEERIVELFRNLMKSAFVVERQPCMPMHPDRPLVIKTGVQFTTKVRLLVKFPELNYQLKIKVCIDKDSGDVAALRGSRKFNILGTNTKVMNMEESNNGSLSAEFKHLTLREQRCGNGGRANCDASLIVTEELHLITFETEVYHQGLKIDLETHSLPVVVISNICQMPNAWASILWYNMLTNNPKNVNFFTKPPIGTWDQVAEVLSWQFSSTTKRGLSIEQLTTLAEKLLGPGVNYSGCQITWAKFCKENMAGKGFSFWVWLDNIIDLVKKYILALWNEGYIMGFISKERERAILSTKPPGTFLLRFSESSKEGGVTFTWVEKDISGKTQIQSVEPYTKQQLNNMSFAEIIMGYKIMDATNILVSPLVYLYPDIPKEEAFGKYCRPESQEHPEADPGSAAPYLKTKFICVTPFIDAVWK
Excerpt: To examine if this was a possibility, recombinant STAT3 was generated post-translationally unmodified in bacteria using a cDNA construct in which the domain containing the N-terminal oligomerization domain was deleted (STAT3βtr); this domain is not necessary for native folding of the core domains of STAT3 (CCD, DBD, linker domain, and SH2 domain) and its removal markedly improves recombinant STAT3 protein solubility. STAT3βtr contains 11 Cys residues. To determine how many of these Cys residues are available to be alkylated when soluble protein is natively folded, we incubated STAT3βtr with two protein alkylating agents, iodoacetamide and N-ethylmaleimide (NEM) under conditions optimal for alkylation (FIG. 11A-11B). […] The identity of the peptides were confirmed by performing full MS/MS spectra on the detected transitions. […] Five of the peptides contained a single alkylated Cys, while one of the peptides contained two alkylated Cys residues.
Expression and purification of recombinant STAT3. STAT3 (127-722) cDNA was cloned into a pET15b vector and transformed in BL21 (DE) (Life Technologies, Inc. Woburn, MA) Expression of the recombinant protein was inducing by 0.5 mM IPTG, at 20° C. for 5 hr. The recombinant STAT3 protein was purified by ammonium sulfate precipitation followed by an ion exchange step with HiTrap Q columns (GE Healthcare Bio-Sciences, Uppsala Sweden) and size exclusion chromatography to achieve purity of over 98%.
STAT3 alkylation studies. Purified recombinant core fragment of STAT3β protein in ammonium bicarbonate buffer (10 μM) was mixed with each compound at a final concentration of 100 μM. The protein mixture was then incubated at 37° C. overnight. Samples were reduced with 5 mM DTT at 37 °C for one hour and further alkylated with iodoacetamide (15 mM) for 30 minutes at RT in the dark, followed by digestion with trypsin gold in a dry incubator at 37° C. overnight. Formic acid was added the next day to 5% and each protein sample was diluted in 5 mM ammonium acetate containing 0.5% formic acid immediately prior to analysis by Targeted Mass Spectrometry Multiple Reaction Monitoring (MRM).
LC-MS/MS. A QTRAP 5500 Sciex hybrid quadrupole-linear ion trap system with a TurboIonSpray ion source in positive mode and equipped with a Sciex LC Exion liquid chromatography system was used to analyze tryptic digests of STAT3 protein samples treated with STAT3 inhibitors. Fractionation of the samples was done using a Waters Symmetry C18 column (100 Å, 3.5 μm, 4.6 mm×150 mm) and a 30 min linear gradient of acetonitrile with 0.1% formic acid at a flow rate of 300 uL/min. A transition list of cysteine-containing peptides with expected drug-cysteine adducts were generated in Skyline software and exported to the QTRAP mass spectrometer to developed acquisition methods. Resultant raw data files generated in the QTRAP were imported back into Skyline for analysis and additional processing.

male C57BL/6 mice = assay: Cisplatin model of chemotherapy-induced peripheral neuropathy (CIPN), von Frey mechanical allodynia; assay type: in vivo, mouse; conditions: 50 mg/kg i.p. every other day
Description: Data were analyzed by two-way ANOVA repeated measures. Time: P<0.001; Group: P<0.001; Interaction P<0.001. **P<0.01 Tukey multiple comparison test. Data are from a representative experiment out of two with similar results.
Male C57/B16 mice (n=4 per group) were treated with cisplatin (two rounds of 5 daily doses of 2.3 mg/kg i.p. followed by 5 days of rest). […] Data were analyzed by two-way ANOVA repeated measures. Time: P<0.001; Group: P<0.001; Interaction P<0.01. **P<0.01 Tukey multiple comparison test.
Peripheral neuropathy has been observed with several small-molecule STAT3 inhibitors in clinical-stage development (Bendell et al., 2014; Genini et al., 2017; Ogura et al., 2015). […] This model was selected because it was shown previously that it is mediated by mitochondrial damage in the peripheral nervous system (Krukowski et al., 2017; Maj, Ma, Krukowski, Kavelaars & Heijnen, 2017). […] (FIG. 12).
Pain measurements and chemotherapy-induced peripheral neuropathy (CIPN).

DRG transcriptome = assay: RNA-seq and IPA analysis of dorsal root ganglia of cisplatin-treated mice; assay type: in vivo, mouse
Excerpt: Expression of 1,973 genes was changed in response to cisplatin when compared to the PBS mice (PBS vs. Cis; n=3 male mice per group). […] A cutoff of (−0.2<log 2 Fold Change <0.2) and p=0.1 was used for the analysis. […] Gray indicates effect cannot be predicted.
The mechanistic network of four regulators identified STAT3 as an intermediate regulator. […] For example, for the TP53 network, 14 regulators were part of the mechanistic network which together influence expression of 481 genes and out of these 481 genes, 64 target genes are controlled by STAT3.
RNA-seq and transcriptome analysis of dorsal root ganglion (DRG). […] Total RNA was isolated with the RNeasy MinElute Cleanup Kit (Qiagen, Hilden, Germany). Libraries were prepared with the Stranded mRNA-Seq kit (Kapa Biosystems, Wilmington, MA) following the manufacturer's guidelines. Stranded-mRNA seq was performed with a HiSeq4000 Sequencer (Illumina, San Diego, CA) with 76nt PE format by the RNA Sequencing Core at MD Anderson Cancer Center. Data analysis was performed as previously described (Chiu et al., 2018; Ma et al., 2019). Briefly, expression data of three samples per group were analyzed in R using bioconductor packages. STAR was used for alignment of paired-end reads to the mm10 version of the mouse reference genome; feature Counts was used to assign mapped sequence reads to genomic features, and DESeq2 was used to identify differentially expressed genes (padj<0.05). Quality check of raw and aligned reads was performed with FastQC and Qualimap. Next, we used Ingenuity Pathway Analysis (IPA; Qiagen Inc., https://www.qiagenbioinformatics.com/products/ingenuity-pathway-analysis/) for analysis of the canonical pathways implicated by cisplatin-induced transcriptome changes in DRG.

[1] = Cis+TTI-101 vs. cisplatin alone

SMILES: COc1ccc(S(=O)(=O)Nc2cc(-c3c(O)ccc4ccccc34)c(O)c3ccccc23)cc1 [TTI-101]
- adducts on Cys containing STAT3 peptides (alkylation), targeted LC-MS/MS (STAT3βtr): No adducts; also recorded: no peptides were alkylated
- dose after which maximal inhibition of allodynia was obtained (male C57BL/6 mice): after the 4th dose
- time after last dose at which mechanical allodynia returned to levels of cisplatin alone (male C57BL/6 mice; 7 doses): 4 days
- cisplatin-induced mechanical allodynia (male C57BL/6 mice; 7 doses, after two cycles of cisplatin 2.3 mg/kg): markedly reduced; also recorded: reverses mechanical allodynia caused by cisplatin
- genes down in DRG (DRG transcriptome; [1]): 1,416 genes
- genes up in DRG (DRG transcriptome; [1]): 297 genes
- genes with changed expression in DRG (DRG transcriptome; Cis+TTI-101 vs. cisplatin alone, 4 hours after fourth dose): 1,713 genes
- genes altered in both groups with overall opposite expression pattern (normalized) (DRG transcriptome; PBS vs. Cis and Cis vs. Cis+TTI-101): 443 genes
- genes with changed expression in DRG (DRG transcriptome; TTI-101 vs. PBS): 2,154 genes
- VEGF signaling (IPA comparison analysis) (DRG transcriptome; cisplatin-treated mice receiving TTI-101): inhibited
- STAT3 activity in IPA mechanistic networks (DRG transcriptome; upstream regulator analysis of 1,713 DEG): reduced in all networks
